Assay [1] concerns the target T1, MtuUng (Mycobacterium tuberculosis uracil DNA glycosylase) (Mycobacterium tuberculosis, UniProt P9WFQ9).
T1 sequence (P9WFQ9 1-227): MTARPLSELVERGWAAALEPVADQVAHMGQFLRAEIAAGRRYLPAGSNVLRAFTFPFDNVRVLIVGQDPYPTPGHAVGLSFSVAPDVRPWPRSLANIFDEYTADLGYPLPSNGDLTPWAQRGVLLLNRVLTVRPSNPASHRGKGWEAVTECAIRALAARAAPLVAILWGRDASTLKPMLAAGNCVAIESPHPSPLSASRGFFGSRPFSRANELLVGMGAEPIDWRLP
Briefly: Molecular beacon fluorescence assay of MtuUng activity and inhibition. The assay is classed as biochemical.

Another assay deals with uracil DNA glycosylase. Particulars: cited from earlier work.

On to `O=c1[nH]ccc(=S)[nH]1` [4-Thio-Uracil], for which, in assay [1], the IC50 – broadly, the concentration that gives 50% inhibition – was found to be 3.57 ± 0.35 mM. Same read-out and setting: the same measure for `Nc1c[nH]c(=O)[nH]c1=O` [5-Amino-Uracil]: 7.18 ± 0.97 mM. Still for that read-out and setting: the value for `O=c1[nH]cc(Br)c(=O)[nH]1` [5-Bromo-Uracil] was 13.6 ± 0.73 mM. As to `O=c1[nH]cc(Cl)c(=O)[nH]1` [5-Chloro-Uracil], in assay [1], the IC50 amounted to 8.71 ± 0.7 mM and affinity was put at a Ki of 7.04 mM. Further, the “type of inhibition (Lineweaver-Burk plot)” value in assay [1] (different inhibitor concentrations, 0.3 nM MtuUng) was “linear mixed inhibition”. Take `O=c1[nH]cc(F)c(=O)[nH]1` [5-Fluoro-Uracil]: in assay [1], the IC50 is 50.2 ± 3.85 mM. Same read-out and setting: the value for `O=c1[nH]cc(I)c(=O)[nH]1` [5-Iodo-Uracil] was 4.92 ± 0.51 mM.

As for `O=[N+]([O-])c1cnc(O)nc1O` [5-Nitro-Uracil], the IC50 in assay [1] worked out at 10.8 ± 0.32 mM.

In assay [1], `O=C1CC(=O)NC(=O)N1` [Barbituric acid] yielded an IC50 of 7.29 ± 0.32 mM. With `O=c1cc[nH]c(=O)[nH]1` [Uracil], the mode of inhibition result in the assay with uracil DNA glycosylase is recorded as “non-competitive”. In assay [1], the IC50 amounted to 2.05 ± 0.3 mM.

(Values after PMC7900708 (Biochemistry and Biophysics Reports, 2021).)
